Source: US20190256474A1, “N-PHENYL-2-(3-PHENYL-6-OXO-1,6-DIHYDROPYRIDAZIN-1-YL)ACETAMIDE DERIVATIVES FOR TREATING CYSTIC FIBROSIS” (Proteostasis Therapeutics, Inc., priority 2016, published 2019)

Target: T1, ΔF508-CFTR (Homo sapiens, UniProt P13569, DEL508-508)
T1 construct: Primary lung epithelial cells homozygous for the Cystic Fibrosis-causing ΔF508 mutation were differentiated; endogenous in cells; host or cells: primary human bronchial epithelial cells (hBE), ΔF508/ΔF508
Assay: hBE equivalent current (Ieq) assay, CFTR activity
Format: cell-based
Settings: relative to a CFTR amplifier at 3 μM, ΔF508 homozygous hBE, 24 h treatment; for Activity 10 μM: compound at 10 μM; for Activity 3 μM: compound at 3 μM
Description: Primary lung epithelial cells homozygous for the Cystic Fibrosis-causing ΔF508 mutation were differentiated for a minimum of 4 weeks in an air-liquid interface on Costar 24 well HTS filter plates prior to the equivalent current (Ieq) measurements. Cells were apically mucus-washed for 30 minutes 24 h prior to treatment with compounds. The basolateral media was removed and replaced with media containing the compound of interest diluted to its final concentration from DMSO stocks. Treated cells were incubated at 37° C. and 5% CO2 for 24 hours. At the end of the treatment period, the media was changed to the Ieq experimental solution for 2 hours before the experiment and plates are maintained in a CO2-free incubator during this period. The plates containing the cells were then placed in pre-warmed heating blocks at 36° C.±0.5 for 15 minutes before measurements are taken. The transepithelial voltage (VT) and conductance (GT) were measured using a custom 24 channel current clamp (TECC-24) with 24 well electrode manifold. The Ieq assay measurements were made following additions with standardized time periods:
1. The baseline VT and GT values were measured for approximately 20 minutes.
2. Benzamil was added to block ENaC for 15 minutes.
3. Forskolin plus VX-770 were added to maximally activate ΔF508-CFTR for 27 minutes.
4. Bumetanide was added to inhibit the NaK2Cl cotransporter and shut-off secretion of chloride.
The activity data captured was the area under the curve (AUC) for the traces of the equivalent chloride current. The AUC was collected from the time of the forskolin/VX-770 addition until the inhibition by bumetanide addition. Correction in response to compound treatment was scored as the increase in the AUC for compound-treated samples over that of vehicle-treated samples.
The results are shown below in Table 1. + indicates activity <150% of a CFTR amplifier with compound at concentration shown and amplifier at 3 μM; ++ indicates activity >150% of a CFTR amplifier with compound at concentration shown and amplifier at 3 μM.

T1 sequence (P13569 with tags, fused parts or gaps DEL508-508): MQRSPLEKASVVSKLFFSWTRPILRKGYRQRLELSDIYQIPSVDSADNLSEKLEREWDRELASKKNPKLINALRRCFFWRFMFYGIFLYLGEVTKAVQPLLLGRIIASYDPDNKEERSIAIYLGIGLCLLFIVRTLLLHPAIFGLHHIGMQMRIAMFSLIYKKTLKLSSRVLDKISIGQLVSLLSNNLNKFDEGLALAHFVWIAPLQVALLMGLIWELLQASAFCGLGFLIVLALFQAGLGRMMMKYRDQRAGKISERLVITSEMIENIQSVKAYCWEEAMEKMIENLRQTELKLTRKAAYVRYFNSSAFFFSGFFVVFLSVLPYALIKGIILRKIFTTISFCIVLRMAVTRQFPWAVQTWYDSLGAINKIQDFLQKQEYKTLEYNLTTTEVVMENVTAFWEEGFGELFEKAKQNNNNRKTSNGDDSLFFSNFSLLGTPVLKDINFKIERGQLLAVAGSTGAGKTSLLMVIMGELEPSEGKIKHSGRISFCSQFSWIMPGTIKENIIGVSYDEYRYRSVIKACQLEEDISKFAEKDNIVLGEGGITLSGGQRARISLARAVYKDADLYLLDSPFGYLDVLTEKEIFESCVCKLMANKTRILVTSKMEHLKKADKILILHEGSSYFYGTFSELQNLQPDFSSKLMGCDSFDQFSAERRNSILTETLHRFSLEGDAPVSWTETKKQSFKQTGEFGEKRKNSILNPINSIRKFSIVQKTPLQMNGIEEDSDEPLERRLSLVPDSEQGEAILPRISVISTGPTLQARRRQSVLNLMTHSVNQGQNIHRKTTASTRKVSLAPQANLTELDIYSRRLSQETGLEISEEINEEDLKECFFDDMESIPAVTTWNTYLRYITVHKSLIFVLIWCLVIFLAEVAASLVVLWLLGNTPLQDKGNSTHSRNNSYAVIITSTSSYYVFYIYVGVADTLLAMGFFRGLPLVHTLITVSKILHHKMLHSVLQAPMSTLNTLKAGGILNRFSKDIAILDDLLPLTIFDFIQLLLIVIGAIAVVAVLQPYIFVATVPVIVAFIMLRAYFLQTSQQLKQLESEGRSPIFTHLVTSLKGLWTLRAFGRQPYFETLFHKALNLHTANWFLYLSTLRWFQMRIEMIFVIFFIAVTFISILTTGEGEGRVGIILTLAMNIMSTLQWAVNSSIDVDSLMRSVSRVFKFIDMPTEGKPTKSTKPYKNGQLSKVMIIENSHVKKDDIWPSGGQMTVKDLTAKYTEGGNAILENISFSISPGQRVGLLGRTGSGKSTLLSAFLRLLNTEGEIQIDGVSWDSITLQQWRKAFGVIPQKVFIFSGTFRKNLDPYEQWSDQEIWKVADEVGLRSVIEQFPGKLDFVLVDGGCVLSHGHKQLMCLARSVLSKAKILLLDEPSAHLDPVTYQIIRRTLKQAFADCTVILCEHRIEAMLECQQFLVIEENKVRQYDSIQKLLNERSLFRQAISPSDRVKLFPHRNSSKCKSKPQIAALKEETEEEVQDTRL

| SMILES | Activity 10 μM | Activity 3 μM |
| --- | --- | --- |
| Cc1ccc(-c2ccc(=O)n(C(C)C(=O)Nc3cc(F)cc(F)c3)n2)cc1O (stereo not shown) [Compound 19, N-(3,5-Difluorophenyl)-2-[3-(3-hydroxy-4-methylphenyl)-6-oxo-1,6-dihydropyridazin-1-yl]propanamide] | + (activity <150% of a CFTR amplifier with compound at concentration shown and amplifier at 3 μM) |  |
| COc1cccc(-c2ccc(=O)n(C(C)C(=O)Nc3ccc(C(C)(C)C)cc3)n2)c1 (stereo not shown) [Compound 11, N-(4-tert-Butylphenyl)-2-[3-(3-methoxyphenyl)-6-oxo-1,6-dihydropyridazin-1-yl]propanamide] | + (activity <150% of a CFTR amplifier with compound at concentration shown and amplifier at 3 μM) |  |
| COc1cccc(-c2ccc(=O)n(C(C)(C)C(=O)Nc3cc(F)cc(F)c3)n2)c1 [Compound 18, N-(3,5-Difluorophenyl)-2-(3-(3-methoxyphenyl)-6-oxopyridazin-1(6H)-yl)-2-methylpropanamide] | + (activity <150% of a CFTR amplifier with compound at concentration shown and amplifier at 3 μM) | + (activity <150% of a CFTR amplifier with compound at concentration shown and amplifier at 3 μM) |
| COc1cccc(NC(=O)C(C)n2nc(-c3cccc(OC)c3)ccc2=O)c1 (stereo not shown) [Compound 6, N-(3-Methoxyphenyl)-2-[3-(3-methoxyphenyl)-6-oxo-1,6-dihydropyridazin-1-yl]propanamide] | + (activity <150% of a CFTR amplifier with compound at concentration shown and amplifier at 3 μM) | + (activity <150% of a CFTR amplifier with compound at concentration shown and amplifier at 3 μM) |
| CC(C(=O)Nc1ccc(C(F)(F)F)cc1)n1nc(-c2cccc(C#N)c2)ccc1=O (stereo not shown) [Compound 36, 2-[3-(3-Cyanophenyl)-6-oxo-1,6-dihydropyridazin-1-yl]-N-[4-(trifluoromethyl)phenyl]propanamide] | ++ (activity >150% of a CFTR amplifier with compound at concentration shown and amplifier at 3 μM) | ++ (activity >150% of a CFTR amplifier with compound at concentration shown and amplifier at 3 μM) |
| COc1cccc(-c2ccc(=O)n(C(C)C(=O)Nc3ccc(C(F)(F)F)c(C(F)(F)F)c3)n2)c1 (stereo not shown) [Compound 47, N-[3,4-Bis(trifluoromethyl)phenyl]-2-[3-(3-methoxyphenyl)-6-oxo-1,6-dihydropyridazin-1-yl]propanamide] | ++ (activity >150% of a CFTR amplifier with compound at concentration shown and amplifier at 3 μM) | ++ (activity >150% of a CFTR amplifier with compound at concentration shown and amplifier at 3 μM) |
| CC(C(=O)Nc1ccc(C(F)(F)F)cc1)n1nc(-c2cccc(OCc3ccccc3)c2)ccc1=O (stereo not shown) [Compound 50, 2-[3-[3-(Benzyloxy)phenyl]-6-oxo-1,6-dihydropyridazin-1-yl]-N-[4-(trifluoromethyl)phenyl]propanamide] | ++ (activity >150% of a CFTR amplifier with compound at concentration shown and amplifier at 3 μM) | ++ (activity >150% of a CFTR amplifier with compound at concentration shown and amplifier at 3 μM) |
| COc1cccc(-c2nn(C(C)C(=O)Nc3cc(F)cc(F)c3)c(=O)cc2-c2ccccc2)c1 (stereo not shown) [Compound 24, N-(3,5-Difluorophenyl)-2-[3-(3-methoxyphenyl)-6-oxo-4-phenyl-1,6-dihydropyridazin-1-yl]propanamide] | ++ (activity >150% of a CFTR amplifier with compound at concentration shown and amplifier at 3 μM) | ++ (activity >150% of a CFTR amplifier with compound at concentration shown and amplifier at 3 μM) |
| COc1cccc(-c2cc(Cl)c(=O)n(C(C)C(=O)Nc3cc(F)cc(F)c3)n2)c1 (stereo not shown) [Compound 22, 2-(5-Chloro-3-(3-methoxyphenyl)-6-oxopyridazin-1(6H)-yl)-N-(3,5-difluorophenyl)propanamide] | + (activity <150% of a CFTR amplifier with compound at concentration shown and amplifier at 3 μM) | + (activity <150% of a CFTR amplifier with compound at concentration shown and amplifier at 3 μM) |
| CCOc1cccc(-c2ccc(=O)n(C(C)C(=O)Nc3ccc(C(F)(F)F)cc3)n2)c1 (stereo not shown) [Compound 48, 2-[3-(3-Ethoxyphenyl)-6-oxo-1,6-dihydropyridazin-1-yl]-N-[4-(trifluoromethyl)phenyl]propanamide] | ++ (activity >150% of a CFTR amplifier with compound at concentration shown and amplifier at 3 μM) | ++ (activity >150% of a CFTR amplifier with compound at concentration shown and amplifier at 3 μM) |
| COc1cccc(-c2ccc(=O)n(C(C)C(=O)Nc3ccc(C(F)(F)F)c(F)c3)n2)c1 (stereo not shown) [Compound 43, N-[3-Fluoro-4-(trifluoromethyl)phenyl]-2-[3-(3-methoxyphenyl)-6-oxo-1,6-dihydropyridazin-1-yl]propanamide] | ++ (activity >150% of a CFTR amplifier with compound at concentration shown and amplifier at 3 μM) | ++ (activity >150% of a CFTR amplifier with compound at concentration shown and amplifier at 3 μM) |
| COc1cccc(-c2cc(-c3ccccc3)c(=O)n(C(C)C(=O)Nc3cc(F)cc(F)c3)n2)c1 (stereo not shown) [Compound 25, N-(3,5-Difluorophenyl)-2-(3-(3-methoxyphenyl)-6-oxo-5-phenylpyridazin-1(6H)-yl)propanamide] | + (activity <150% of a CFTR amplifier with compound at concentration shown and amplifier at 3 μM) |  |
| COc1cccc(-c2ccc(=O)n(C(C)C(=O)Nc3cccc(Cl)c3)n2)c1 (stereo not shown) [Compound 13, N-(3-Chlorophenyl)-2-[3-(3-methoxyphenyl)-6-oxo-1,6-dihydropyridazin-1-yl]propanamide] | ++ (activity >150% of a CFTR amplifier with compound at concentration shown and amplifier at 3 μM) | ++ (activity >150% of a CFTR amplifier with compound at concentration shown and amplifier at 3 μM) |
| COc1ccc(F)c(-c2ccc(=O)n(C(C)C(=O)Nc3ccc(C(F)(F)F)cc3)n2)c1 (stereo not shown) [Compound 52, 2-[3-(2-Fluoro-5-methoxyphenyl)-6-oxo-1,6-dihydropyridazin-1-yl]-N-[4-(trifluoromethyl)phenyl]propanamide] | ++ (activity >150% of a CFTR amplifier with compound at concentration shown and amplifier at 3 μM) | ++ (activity >150% of a CFTR amplifier with compound at concentration shown and amplifier at 3 μM) |
| COc1cccc(-c2ccc(=O)n(C(C)C(=O)Nc3ccc(Cl)c(Cl)c3)n2)c1 (stereo not shown) [Compound 27, N-(3,4-Dichlorophenyl)-2-[3-(3-methoxyphenyl)-6-oxo-1,6-dihydropyridazin-1-yl]propanamide] | ++ (activity >150% of a CFTR amplifier with compound at concentration shown and amplifier at 3 μM) | ++ (activity >150% of a CFTR amplifier with compound at concentration shown and amplifier at 3 μM) |
| CC(C(=O)Nc1ccc(C(F)(F)F)cc1)n1nc(-c2ccc(C(F)(F)F)cc2)ccc1=O (stereo not shown) [Compound 34, 2-[6-Oxo-3-[4-(trifluoromethyl)phenyl]-1,6-dihydropyridazin-1-yl]-N-[4-(trifluoromethyl)phenyl]propanamide] | + (activity <150% of a CFTR amplifier with compound at concentration shown and amplifier at 3 μM) | + (activity <150% of a CFTR amplifier with compound at concentration shown and amplifier at 3 μM) |
| COc1cccc(-c2ccc(=O)n(CC(=O)Nc3cc(F)cc(F)c3)n2)c1 [Compound 16, N-(3,5-Difluorophenyl)-2-[3-(3-methoxyphenyl)-6-oxo-1,6-dihydropyridazin-1-yl]acetamide] | + (activity <150% of a CFTR amplifier with compound at concentration shown and amplifier at 3 μM) |  |
| COc1cccc(-c2nn(C(C)C(=O)Nc3cc(F)cc(F)c3)c(=O)cc2Cl)c1 (stereo not shown) [Compound 23, 2-(4-Chloro-3-(3-methoxyphenyl)-6-oxopyridazin-1(6H)-yl)-N-(3,5-difluorophenyl)propanamide] | + (activity <150% of a CFTR amplifier with compound at concentration shown and amplifier at 3 μM) |  |
